Data set [1] deals with human adipocytes. The data set is described as follows: Lipolysis assay (agonist-stimulated glycerol release). Type of data set: cell-based. To be noted: agonist exposure 4.5 hours, white and NRBC-treated adipocytes. As to the method: Thermogenesis is fueled by lipolysis, so we determined whether agonist-stimulated glycerol release, a measure of lipolysis, reflected the increases in receptors and lipolysis machinery in NRBC-treated adipocytes. First, adipocyte cultures from four donors who had obesity were treated with cell medium (untreated control cells) or NRBC for seven days. On the day of the acute lipolysis assay, cells were exposed to the individual receptor agonists for […] in buffer and glycerol released into the cell supernatant was measured. Non-hydrolyzable 8-cpt-cAMP, a potent activator of PKA signaling, was also evaluated in each experiment as a positive control since it bypasses individual receptors and measures the maximum capacity for lipolysis (36). The βARs, PTHR, MC1R, GPER and ADORA2B are all stimulatory G-protein (Gs) coupled receptors and signal through the CAMP-PKA signal transduction mechanism. NPR1 is not a Gs-coupled receptor and signals through an alternate mechanism of guanylate cyclase-cGMP-protein kinase G (PKG).
Cells were differentiated in 96-well plates and treated with cell medium (untreated) or NRBC for seven days. On the day of the lipolysis assay, cells were exposed for 4.5 hours to buffer (KRB with 1% BSA) or receptor agonists dissolved in buffer. Agonists were used at concentrations shown to give maximum responses and were: 8-Cpt-cAMP 200 μM non-hydrolyzable PKA activator of maximum stimulated lipolysis (cAMP) (36), atrial natriuretic peptide 0.1 μM for NPR1 and NPR3(37), parathyroid hormone (amino acids 1-34) 1 μM for PTHR(38), isoproterenol 1 μM all βARs and dobutamine 1 μM for β1AR (39), estradiol 1 μM for GPER (40), growth hormone 250 ng/ml for GHR (41), adrenocorticotropin hormone 1 μM for MC1R (42), bile acid chenodeoxycholic acid 30 μM for TGR5(43), adenosine 1 μM for ADORA1 and ADORA2B (44), and menthol 100 μM for TRPM8(45). Supernatants were removed for measurement of glycerol released using Glycerol Reagent A, and concentrations were determined using a standard curve. Data are from four or five experiments each with cells from different donors with BMI from 27 to 36.

The target of a further data set is CDK5 (Homo sapiens, UniProt Q00535). To be noted: cited from earlier work.
Chain of CDK5 (Q00535 whole entry, species assumed): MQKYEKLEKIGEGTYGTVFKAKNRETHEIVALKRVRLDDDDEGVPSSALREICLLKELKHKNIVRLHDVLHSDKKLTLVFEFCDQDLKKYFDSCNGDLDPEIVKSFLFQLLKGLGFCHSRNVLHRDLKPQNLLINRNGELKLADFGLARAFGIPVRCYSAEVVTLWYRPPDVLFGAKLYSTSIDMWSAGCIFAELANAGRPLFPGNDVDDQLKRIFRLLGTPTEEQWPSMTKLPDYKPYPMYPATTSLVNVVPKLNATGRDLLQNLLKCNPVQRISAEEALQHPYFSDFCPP
Chain of CDK5 (Q15078 whole entry partner, species assumed): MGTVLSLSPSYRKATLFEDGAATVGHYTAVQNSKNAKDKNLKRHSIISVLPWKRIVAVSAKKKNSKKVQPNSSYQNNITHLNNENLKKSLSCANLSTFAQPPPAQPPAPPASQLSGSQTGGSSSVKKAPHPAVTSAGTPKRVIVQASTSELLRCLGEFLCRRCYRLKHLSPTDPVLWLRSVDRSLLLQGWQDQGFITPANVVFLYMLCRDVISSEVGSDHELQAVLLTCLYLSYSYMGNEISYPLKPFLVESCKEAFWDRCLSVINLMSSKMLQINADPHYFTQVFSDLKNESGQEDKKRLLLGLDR
Data set [2] has as its system human adipocytes. The data set is described as follows: mRNA levels (qRT-PCR) in human adipocyte cultures treated for seven days. The class given is cell-based. To be noted: for gene expression, carotenoid alone: 2 μM carotenoid individually, seven days. (In qPCR the cycle at which signal appears reflects the starting amount.)
The subject of data set [3] is human adipocytes. The description is as above. The class given is cell-based. As to conditions: for UCP1 gene expression, carotenoid combined with NR: 2 μM carotenoid + 8 μM NR, seven days, vs NR alone; for gene expression, β-carotene added to naringenin: 2 μM β-carotene + 8 μM naringenin extract, 7 days. The text has this: In adipocytes, CDK5 inhibitors reduce adipogenesis and increase genes for energy expenditure by altering PPARγ target gene selection. We measured the expression of the PPARα/γ direct target gene UCP1 after treating human adipocyte cultures with CDK5-inhibiting flavonols combined with naringenin for seven days.
Human adipose-derived stem cells from overweight and obese female donors were purchased from LaCell, LLC (New Orleans, Louisiana) or isolated from lipoaspirate waste donated post-surgery from women with obesity using methods as previously described (31). Cells were seeded, maintained until two days after becoming confluent, and differentiated into adipocytes in the presence of rosiglitazone and isobutylmethylxanthine for five days as previously described (25). […], dissolved in DMSO at 1000×, started 5 days after the differentiation period and lasted for seven days in adipocyte maintenance medium with heat inactivated serum, before RNA and protein were isolated from adipocyte cultures.
Quantitative reverse transcriptase and real-time PCR were conducted in one reaction with the gene-specific reverse PCR primer also priming the cDNA synthesis as previously described (25). Primer-probe sequences for UCP1, GLUT4, ATGL, adiponectin, PGC-1α and ribosomal RPL13A, used to adjust target gene values for total RNA in each sample, have been previously reported (25). […] Predesigned human primer and probe sets from Thermofisher Scientific are PM20D1 Hs00399438_m1; ANGPTL4 Hs00211522_m1; GDF11 Hs00195156_m1; S100B Hs00902901_m1.

The test system of data set [4] is human adipocytes. The data set can be described thus: Protein levels by Western blotting in human adipocytes treated for seven days. Type of data set: cell-based. In general terms: A western blot detects proteins with antibodies after separation by electrophoresis.
The next data set in a line: clinical. To be noted: human, in vivo, 150 mg.
A further data set deals with human fat cells. The data set can be described thus: Oxygen consumption rate of human fat cells. The class given is cell-based. The source says:
Referring to FIG. 8, cells consume oxygen while metabolizing fat for thermogenic energy expenditure, and we directly measured oxygen consumption rate.

Data set [5] has as its system human adipocytes. The data set is described as follows: Protein levels by Western blotting in human adipocytes treated for seven days. Type of data set: cell-based. As to conditions: 8 μM NR or 50 nM myricetin, 7 days. The text has this: Since we saw an increase in SIRT3 mRNA and myricetin upregulates SIRT3 protein in adipocytes from mice, we analyzed levels of SIRT3 protein in human adipocytes treated for seven days with the same concentrations of compounds. Protein was isolated from adipocytes and analyzed on immunoblots probed with antibodies that specifically bind human SIRT3 or human β-actin. […] However, adding myr to NR+BC boosted SIRT3 protein by 37%.
Human adipose-derived stem cells from overweight and obese female donors were purchased from LaCell, LLC (New Orleans, Louisiana) or isolated from lipoaspirate waste donated post-surgery from women with obesity using methods as previously described (31). Cells were seeded, maintained until two days after becoming confluent, and differentiated into adipocytes in the presence of rosiglitazone and isobutylmethylxanthine for five days as previously described (25). Treatments of adipocytes with 8 μM NR and 2 μM carotenoid, dissolved in DMSO at 1000×, started 5 days after the differentiation period and lasted for seven days in adipocyte maintenance medium with heat inactivated serum, before RNA and protein were isolated from adipocyte cultures.
Whole cell protein was isolated from differentiated cell cultures after treatment for seven days, lysed with RIPA buffer containing protease and phosphatase inhibitors, and pushed through a 20-gauge needle four times to disrupt organelles. Fifty micrograms of total cell protein were loaded per lane and resolved in 7.5% SDS-PAGE gels, transferred to nitrocellulose membranes, and probed overnight at 4° C. with specific primary antibodies. Anti-rabbit or -mouse secondary antibodies conjugated to horseradish peroxidase were used for detection of target proteins. Image J was used to quantify protein bands on Western blots. To adjust for variations in total protein loaded in each lane, β-actin was used.

Data set [6] is described as follows: Case study of naringenin in an individual with obesity and diabetes. Type of data set: in vivo, human. The protocol: Next, we gave 150 mg of naringenin extract in 500 mg of orange extract three times a day by capsule to a person who was obese and had type 2 diabetes that was only treated with diet. They took the capsule three times a day for 8 weeks without going on a diet or changing their exercise habits. […] For an obesity drug to get approval for weight loss it should cause a loss of 5%, so the results were close to what one can expect for a drug. Their insulin resistance went down by 20% and their metabolic rate went up by 3 percent.
We went back to the person whom we tested at 150 mg three times a day with naringenin, and tested them with 300 mg three times a day. They maintained the loss on the lower dose of naringenin and had also lost further weight, so they were below their natural weight set point.

[7] abbreviates: 150 mg three times a day, 8 weeks.
Setting [8] is: 150 mg three times a day, eight weeks.

“Also recorded” adds a separate entry of the source.

The EC50 is the midpoint of the concentration-response curve. By Cmax is commonly meant the maximum level reached in the sampled fluid or tissue. The term half-life denotes the time in which the quantity being followed falls by half. Read a high half-life as slow loss.

Turning to `Nc1ncnc2c1ncn2[C@@H]1O[C@H](CO)[C@@H](O)[C@H]1O` [adenosine], the “lipolysis stimulated by the receptor agonist itself” value (shortened to “lipolysis stimulated”) in the data set on human adipocytes [1] was “no effect”.

Regarding `C[C@]12CC[C@@H]3c4ccc(O)cc4CC[C@H]3[C@@H]1CC[C@@H]2O` [estrogen, estradiol], the “lipolysis stimulated” value with human adipocytes [1] is listed as “small reduction in lipolysis; also recorded: neither growth hormone nor estrogen stimulated lipolysis”.

On to `O=c1c(O)c(-c2ccc(O)cc2)oc2cc(O)cc(O)c12` [kaempferol, reference compound], for which the “CDK5 kinase activity inhibition EC50 (in words)” value on CDK5 is “low micromolar range”. At CDK5 (read-out: CDK5 inhibition EC50), the EC50 is 66 µM.

`CC1=C[C@H](O)CC(C)(C)[C@H]1/C=C/C(C)=C/C=C/C(C)=C/C=C/C=C(C)/C=C/C=C(C)/C=C/C1=C(C)C[C@@H](O)CC1(C)C` [lutein]: the “gene expression, carotenoid alone” value with human adipocytes [2] is given as “no effect on gene expression”. For the same molecule, in the data set on human adipocytes [3], the “UCP1 gene expression, carotenoid combined with NR” value (“UCP1 gene expression” below) is recorded as “synergistic; also recorded: synergistically enhanced levels of UCP1”.

In the case of `CC(C)=CCC/C(C)=C/C=C/C(C)=C/C=C/C(C)=C/C=C/C=C(C)/C=C/C=C(C)/C=C/C=C(\C)CCC=C(C)C` [lycopene], in the data set with human adipocytes [2], the “gene expression, carotenoid alone” value is “no effect on gene expression”. For the same molecule, the figures for the “UCP1 gene expression” value in the data set with human adipocytes [3] and in the data set with human adipocytes [3] (listed as Lycopene) were “did not alter NR-stimulated UCP1 levels” and “did not alter the NR response”, respectively.

`O=C1C[C@@H](c2ccc(O)cc2)Oc2cc(O)cc(O)c21` [naringenin]: the UCP-1 expression result in the data set on human adipocytes [2] (human fat cells in culture and adult adipose specimens, naringenin alone) is “caused an increase in Uncoupling Protein-1 (UCP-1)”. In the data set with human adipocytes [4] (8 μM NR, 2 μM BC, 7 days), the “PGC-1α protein levels vs untreated control” value was “approximately two-fold”. The “protein levels of PPARα, PPARγ, PGC-1α and NAMPT” value in the data set on human adipocytes [4] (NR alone) was “did not upregulate protein levels”. For the same molecule, the “UCP-1 and adiponectin protein levels” value with human adipocytes [4] (naringenin 8 μM over 7 days (FIG. 10)) is “protein levels for UCP-1 and adiponectin increased”. In “clinical”, this molecule showed a Cmax of around 16 µM and a half-life of 3 h. The “basal and maximal energy expenditure (oxygen consumption rate)” value in the data set with human fat cells is “strong inducer of basal and maximal energy expenditure”. Also, the “UCP1 and GLUT4 mRNA, naringenin concentration curve” value in the data set with human adipocytes [3] (naringenin 0.03 μM to 8 μM with constant 3 μM myricetin) is listed as “increased gene expression in a concentration-dependent manner”. Also, the adiponectin production result in the data set on human adipocytes [3] (naringenin alone (FIG. 9)) is listed as “increased production of a secreted hormone (adiponectin)”. Also, in the data set with human adipocytes [5], the “SIRT3 protein levels, single agent” value is “upregulate SIRT3 protein levels”. Besides, in [6] (setting [7]), the body weight loss is 2.3%, the “decrease in insulin resistance” value is 20% and the “increase in metabolic rate” value is 3%. Moreover, in [6] (setting [8]), the “increase in energy expenditure” value is reported as 3.5% and the “reduction of fasting insulin concentrations” value came out at 20%. Further, in [6] (300 mg three times a day, same person), the “body weight at higher dose” value is reported as “only maintained their weight loss without adding further weight loss”. Besides, the diabetes status result in [6] (after weight loss following the 150 mg dose) is reported as “resolved their diabetes”.

On to `CC1=C(/C=C/C(C)=C/C=C/C(C)=C/C=C/C=C(C)/C=C/C=C(C)/C=C/C2=C(C)CCCC2(C)C)C(C)(C)CCC1` [β-carotene, β-Carotene], for which the “gene expression, carotenoid alone” value with human adipocytes [2] is reported as “no effect on gene expression”. The “SIRT3 mRNA expression” value with human adipocytes [3] (2 μM BC added to NR+myr, vs NR or NR+myricetin) is listed as “significantly increased SIRT3 expression”. In the data set on human adipocytes [3] (listed as BC), the “UCP1 gene expression” value is listed as “synergistic; also recorded: synergistically enhanced levels of UCP1”. For the same molecule, the “gene expression, β-carotene added to naringenin” value in the data set on human adipocytes [3] is “synergistically enhances the effects of naringenin on gene expression; also recorded: synergistically induces gene expression”; in the data set with human adipocytes [3] (listed as beta-carotene) it was “synergistically increases expression of genes for thermogenic energy expenditure and insulin sensitivity”.

As for “adrenocorticotropin hormone (SYSMEHFRWGKPVGKKRRPVKVYPNGAEDESAEAFPLEF; Corticotropin; UniProt P01189 138-176, looked up) [ACTH, MC1R agonist used in lipolysis assay]”, in the data set with human adipocytes [1], the “lipolysis stimulated” value is listed as “no effect”.

Regarding “growth hormone: human pituitary growth hormone, GHR agonist in lipolysis assay”, the “lipolysis stimulated” value with human adipocytes [1] was “neither growth hormone nor estrogen stimulated lipolysis”.

Turning to parathyroid hormone (1-34) [PTH], the “lipolysis stimulated” value in the data set with human adipocytes [1] was “highest in control white adipocytes”.

The values are drawn from US20250213519A1, “SYNERGY FOR INCREASING INSULIN SENSITIVITY” (Board of Supervisors of Louisiana State University and …, priority 2022, published 2025).
